Source: ChEMBL document CHEMBL1201862, “PubChem BioAssay data set” (2004)
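Following 48 hours of exposure in 96-well plates, responses at five concentrations were used to interpolate endpoints linearly. At the GI50, growth is halved.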 Active and inactive are the calls of the source. Cut-off read from the data, not from the text of the source: active = GI50 up to about 1.1 µM and inactive = higher.

Columns and labels:
Experiment in all cases: NCI tumour cell line growth inhibition, 48 h
A498 = tested on: A498
A549 = tested on: A549
ACHN = tested on: ACHN
CCRF-CEM = tested on: CCRF-CEM
COLO 205 = tested on: COLO 205
DLD-1 = tested on: DLD-1
DMS-114 = tested on: DMS-114
DMS-273 = tested on: DMS-273
EKVX = tested on: EKVX
HCC 2998 = tested on: HCC 2998
HCT-116 = tested on: HCT-116
HCT-15 = tested on: HCT-15
HL-60 = tested on: HL-60
HOP-18 = tested on: HOP-18
HOP-62 = tested on: HOP-62
HT-29 = tested on: HT-29
IGROV-1 = tested on: IGROV-1
K562 = tested on: K562
KM-20L2 = tested on: KM-20L2
KM12 = tested on: KM12
LOX IMVI = tested on: LOX IMVI
M14 = tested on: M14
MOLT-4 = tested on: MOLT-4
NCI-H226 = tested on: NCI-H226
NCI-H23 = tested on: NCI-H23
NCI-H460 = tested on: NCI-H460
OVCAR-3 = tested on: OVCAR-3
OVCAR-4 = tested on: OVCAR-4
OVCAR-5 = tested on: OVCAR-5
OVCAR-8 = tested on: OVCAR-8
RPMI-8226 = tested on: RPMI-8226
RXF 393 = tested on: RXF 393
SF-268 = tested on: SF-268
SF-295 = tested on: SF-295
SF-539 = tested on: SF-539
SK-MEL-28 = tested on: SK-MEL-28
SK-MEL-2 = tested on: SK-MEL-2
SK-MEL-5 = tested on: SK-MEL-5
SK-OV-3 = tested on: SK-OV-3
SN12C = tested on: SN12C
SNB-19 = tested on: SNB-19
SNB-75 = tested on: SNB-75
SR = tested on: SR
SW-620 = tested on: SW-620
TK-10 = tested on: TK-10
U-251 = tested on: U-251
UACC-257 = tested on: UACC-257
UACC-62 = tested on: UACC-62
UO-31 = tested on: UO-31
XF498 = tested on: XF498
786-0 = tested on: 786-0
CAKI-1 = tested on: CAKI-1
M19-MEL = tested on: M19-MEL
Malme-3M = tested on: Malme-3M
NCI-H522 = tested on: NCI-H522

CC1CC2=C(S(=O)(=O)c3ccccc3)CC(S(=O)(=O)c3ccccc3)(S(=O)(=O)c3ccccc3)CC21 (stereo unspecified)
GI50 (A498): > 100 µM (inactive)
GI50 (A549): > 100 µM (inactive)
GI50 (ACHN): > 100 µM (inactive)
GI50 (CCRF-CEM): 27.4 µM (inactive)
GI50 (COLO 205): > 100 µM (inactive)
GI50 (DLD-1): > 100 µM (inactive)
GI50 (DMS-114): 9.64 µM (inactive)
GI50 (DMS-273): > 100 µM (inactive)
GI50 (EKVX): > 100 µM (inactive)
GI50 (HCC 2998): > 100 µM (inactive)
GI50 (HCT-116): 21.9 µM (inactive)
GI50 (HCT-15): > 100 µM
GI50 (HL-60): 16.6 µM (inactive)
GI50 (HOP-18): > 100 µM (inactive)
GI50 (HOP-62): > 100 µM (inactive)
GI50 (HT-29): > 100 µM (inactive)
GI50 (IGROV-1): > 100 µM (inactive)
GI50 (K562): 38.7 µM (inactive)
GI50 (KM-20L2): > 100 µM (inactive)
GI50 (KM12): > 100 µM (inactive)
GI50 (LOX IMVI): > 100 µM (inactive)
GI50 (M14): > 100 µM (inactive)
GI50 (MOLT-4): > 100 µM (inactive)
GI50 (NCI-H226): > 100 µM (inactive)
GI50 (NCI-H23): > 100 µM (inactive)
GI50 (NCI-H460): > 100 µM (inactive)
GI50 (OVCAR-3): > 100 µM (inactive)
GI50 (OVCAR-4): > 100 µM (inactive)
GI50 (OVCAR-5): > 100 µM (inactive)
GI50 (OVCAR-8): > 100 µM (inactive)
GI50 (RPMI-8226): 88.1 µM (inactive)
GI50 (RXF 393): > 100 µM (inactive)
GI50 (SF-268): > 100 µM (inactive)
GI50 (SF-295): > 100 µM (inactive)
GI50 (SF-539): > 100 µM (inactive)
GI50 (SK-MEL-28): > 100 µM (inactive)
GI50 (SK-MEL-2): > 100 µM (inactive)
GI50 (SK-MEL-5): > 100 µM (inactive)
GI50 (SK-OV-3): > 100 µM (inactive)
GI50 (SN12C): > 100 µM (inactive)
GI50 (SNB-19): > 100 µM (inactive)
GI50 (SNB-75): 25.1 µM (inactive)
GI50 (SR): > 100 µM (inactive)
GI50 (SW-620): > 100 µM (inactive)
GI50 (TK-10): > 100 µM (inactive)
GI50 (U-251): 72.6 µM (inactive)
GI50 (UACC-257): > 100 µM (inactive)
GI50 (UACC-62): > 100 µM (inactive)
GI50 (UO-31): > 100 µM (inactive)
GI50 (XF498): > 100 µM (inactive)

Nc1ccc2nc(Nc3ccc(F)cc3)cnc2c1
GI50 (786-0): > 100 µM (inactive)
GI50 (A549): > 100 µM (inactive)
GI50 (ACHN): > 100 µM (inactive)
GI50 (CAKI-1): > 100 µM (inactive)
GI50 (CCRF-CEM): 30.5 µM (inactive)
GI50 (COLO 205): > 100 µM (inactive)
GI50 (DLD-1): > 100 µM (inactive)
GI50 (DMS-114): 34.4 µM (inactive)
GI50 (DMS-273): > 100 µM (inactive)
GI50 (EKVX): > 100 µM (inactive)
GI50 (HCC 2998): > 100 µM (inactive)
GI50 (HCT-116): > 100 µM (inactive)
GI50 (HCT-15): > 100 µM
GI50 (HL-60): 54.7 µM (inactive)
GI50 (HOP-62): > 100 µM (inactive)
GI50 (HT-29): > 100 µM (inactive)
GI50 (K562): 81.5 µM (inactive)
GI50 (KM12): > 100 µM (inactive)
GI50 (LOX IMVI): > 100 µM (inactive)
GI50 (M14): > 100 µM (inactive)
GI50 (M19-MEL): > 100 µM (inactive)
GI50 (MOLT-4): 27.7 µM (inactive)
GI50 (Malme-3M): > 100 µM (inactive)
GI50 (NCI-H226): > 100 µM (inactive)
GI50 (NCI-H460): > 100 µM (inactive)
GI50 (NCI-H522): 44.4 µM (inactive)
GI50 (OVCAR-3): 90.4 µM (inactive)
GI50 (OVCAR-4): > 100 µM (inactive)
GI50 (OVCAR-5): > 100 µM (inactive)
GI50 (OVCAR-8): > 100 µM (inactive)
GI50 (RPMI-8226): 61.7 µM (inactive)
GI50 (SF-268): 74.5 µM (inactive)
GI50 (SF-295): > 100 µM (inactive)
GI50 (SF-539): > 100 µM (inactive)
GI50 (SK-MEL-28): > 100 µM (inactive)
GI50 (SK-MEL-2): > 100 µM (inactive)
GI50 (SK-MEL-5): > 100 µM (inactive)
GI50 (SN12C): > 100 µM (inactive)
GI50 (SNB-19): > 100 µM (inactive)
GI50 (SNB-75): > 100 µM (inactive)
GI50 (SR): 36.1 µM (inactive)
GI50 (SW-620): > 100 µM (inactive)
GI50 (TK-10): 87.3 µM (inactive)
GI50 (UACC-257): > 100 µM (inactive)
GI50 (UO-31): 47.2 µM (inactive)
GI50 (XF498): > 100 µM (inactive)
